Reference: ChEMBL document CHEMBL3217564, “The design and synthesis of 5- and 6-isoxazolylbenzimidazoles as selective inhibitors of the BET bromodomains” (Medchemcomm, 2013)

Tests used:
[1] = biological target: Protein polybromo-1 (Homo sapiens) (UniProt Q86U86); assay: Binding affinity to PB1-5 bromodomain (unknown origin) assessed as change in melting temperature at 10 uM by differential scanning fluorimetric analysis
Homo sapiens [2] = organism: Homo sapiens; assay: Binding affinity to CBP (unknown origin) assessed as change in melting temperature at 10 uM by differential scanning fluorimetric analysis
[3] = Inhibition of CBP (unknown origin) by AlphaScreen assay; set-up: species or system Homo sapiens
[4] = biological target: T1, Bromodomain-containing protein 4 (Homo sapiens, UniProt O60885); assay: Binding affinity to BRD4 bromodomain-2 (unknown origin) assessed as change in melting temperature at 10 uM by differential scanning fluorimetric analysis
[5] = biological target: T1, Bromodomain-containing protein 4; assay: Inhibition of BRD4 bromodomain-1 (unknown origin) by AlphaScreen assay
[6] = biological target: PH-interacting protein (Homo sapiens) (UniProt Q8WWQ0); assay: Binding affinity to PHIP bromodomain-2 (unknown origin) assessed as change in melting temperature at 10 uM by differential scanning fluorimetric analysis
[7] = biological target: Transcription initiation factor TFIID subunit 1 (Homo sapiens) (UniProt P21675); assay: Binding affinity to TAF1 bromodomain-2 (unknown origin) assessed as change in melting temperature at 10 uM by differential scanning fluorimetric analysis
Sequence of Transcription initiation factor TFIID subunit 1 (Homo sapiens) (P21675 whole entry): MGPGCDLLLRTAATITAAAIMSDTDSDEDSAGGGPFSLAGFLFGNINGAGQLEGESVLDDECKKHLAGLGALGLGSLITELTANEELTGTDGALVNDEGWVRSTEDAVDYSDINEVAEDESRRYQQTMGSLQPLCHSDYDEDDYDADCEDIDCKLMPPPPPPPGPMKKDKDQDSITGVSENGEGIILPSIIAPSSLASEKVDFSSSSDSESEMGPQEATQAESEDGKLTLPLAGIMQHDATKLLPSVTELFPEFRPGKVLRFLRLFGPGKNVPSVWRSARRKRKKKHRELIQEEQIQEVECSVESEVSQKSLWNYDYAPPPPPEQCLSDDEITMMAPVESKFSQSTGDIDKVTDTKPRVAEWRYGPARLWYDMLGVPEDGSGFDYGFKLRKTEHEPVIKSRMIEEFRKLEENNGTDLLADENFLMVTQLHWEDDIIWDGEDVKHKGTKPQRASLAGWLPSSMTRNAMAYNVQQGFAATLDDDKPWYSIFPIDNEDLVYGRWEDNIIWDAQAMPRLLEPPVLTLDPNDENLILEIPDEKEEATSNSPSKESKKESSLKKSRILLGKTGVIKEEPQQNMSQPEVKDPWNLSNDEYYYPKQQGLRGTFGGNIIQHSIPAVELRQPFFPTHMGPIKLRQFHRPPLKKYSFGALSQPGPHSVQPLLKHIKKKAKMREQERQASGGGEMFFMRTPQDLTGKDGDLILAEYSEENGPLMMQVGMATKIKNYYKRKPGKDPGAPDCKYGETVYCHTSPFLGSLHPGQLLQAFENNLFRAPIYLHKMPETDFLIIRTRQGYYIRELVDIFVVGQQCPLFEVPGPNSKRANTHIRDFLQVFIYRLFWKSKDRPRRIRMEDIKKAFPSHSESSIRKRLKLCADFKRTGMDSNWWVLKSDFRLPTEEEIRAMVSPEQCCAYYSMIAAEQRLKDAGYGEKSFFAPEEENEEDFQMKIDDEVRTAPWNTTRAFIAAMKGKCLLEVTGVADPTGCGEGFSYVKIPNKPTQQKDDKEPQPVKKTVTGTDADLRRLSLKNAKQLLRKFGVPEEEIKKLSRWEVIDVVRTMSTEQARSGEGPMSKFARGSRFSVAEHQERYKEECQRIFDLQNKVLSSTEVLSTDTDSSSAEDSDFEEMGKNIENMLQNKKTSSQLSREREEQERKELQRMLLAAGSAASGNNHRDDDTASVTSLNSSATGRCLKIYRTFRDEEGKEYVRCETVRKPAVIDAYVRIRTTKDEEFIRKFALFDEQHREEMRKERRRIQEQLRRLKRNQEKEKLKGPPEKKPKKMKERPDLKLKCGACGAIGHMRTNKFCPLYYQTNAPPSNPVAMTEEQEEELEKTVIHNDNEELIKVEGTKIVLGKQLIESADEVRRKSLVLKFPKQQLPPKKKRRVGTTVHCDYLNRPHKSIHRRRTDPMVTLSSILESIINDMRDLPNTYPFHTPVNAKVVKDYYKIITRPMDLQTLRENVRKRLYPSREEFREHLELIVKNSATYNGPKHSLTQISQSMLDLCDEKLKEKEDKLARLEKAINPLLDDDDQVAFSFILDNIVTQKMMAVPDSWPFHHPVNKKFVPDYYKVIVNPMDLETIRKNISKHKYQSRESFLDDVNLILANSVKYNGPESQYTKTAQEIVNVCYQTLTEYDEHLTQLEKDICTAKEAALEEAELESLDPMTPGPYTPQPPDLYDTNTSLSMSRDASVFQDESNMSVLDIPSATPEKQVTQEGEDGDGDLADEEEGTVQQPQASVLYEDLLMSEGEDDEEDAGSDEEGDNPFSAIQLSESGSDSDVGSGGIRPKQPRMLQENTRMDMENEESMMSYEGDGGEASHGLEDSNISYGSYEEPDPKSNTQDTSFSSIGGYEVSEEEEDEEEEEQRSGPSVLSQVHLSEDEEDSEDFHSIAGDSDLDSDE

[8] = biological target: Histone acetyltransferase KAT2B (Homo sapiens) (UniProt Q92831); assay: Binding affinity to PCAF bromodomain (unknown origin) assessed as change in melting temperature at 10 uM by differential scanning fluorimetric analysis
Sequence of Histone acetyltransferase KAT2B (Homo sapiens) (Q92831 whole entry, looked up, the tested form may be a part): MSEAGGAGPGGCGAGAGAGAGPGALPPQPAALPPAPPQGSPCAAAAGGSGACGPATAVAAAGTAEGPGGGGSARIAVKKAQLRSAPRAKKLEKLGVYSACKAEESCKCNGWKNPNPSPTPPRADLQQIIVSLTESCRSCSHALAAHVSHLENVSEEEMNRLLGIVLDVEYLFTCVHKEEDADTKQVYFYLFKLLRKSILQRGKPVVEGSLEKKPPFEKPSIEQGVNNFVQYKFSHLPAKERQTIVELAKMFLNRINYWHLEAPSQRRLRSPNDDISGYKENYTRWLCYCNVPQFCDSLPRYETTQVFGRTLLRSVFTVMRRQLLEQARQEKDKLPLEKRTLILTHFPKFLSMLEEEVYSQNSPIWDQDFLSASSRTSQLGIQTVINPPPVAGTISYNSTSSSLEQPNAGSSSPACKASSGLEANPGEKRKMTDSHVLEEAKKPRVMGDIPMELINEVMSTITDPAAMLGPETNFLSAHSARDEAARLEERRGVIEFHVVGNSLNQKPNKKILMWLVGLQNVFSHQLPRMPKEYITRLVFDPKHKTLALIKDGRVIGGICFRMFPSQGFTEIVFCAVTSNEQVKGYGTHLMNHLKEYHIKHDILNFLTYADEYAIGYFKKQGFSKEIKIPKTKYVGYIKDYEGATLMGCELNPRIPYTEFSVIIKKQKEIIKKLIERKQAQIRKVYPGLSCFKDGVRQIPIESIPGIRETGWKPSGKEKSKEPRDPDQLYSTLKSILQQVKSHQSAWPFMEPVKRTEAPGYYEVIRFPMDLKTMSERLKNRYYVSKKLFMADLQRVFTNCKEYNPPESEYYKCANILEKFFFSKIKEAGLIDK

[9] = biological target: T2, ATPase family AAA domain-containing protein 2 (Homo sapiens) (UniProt Q6PL18); assay: Binding affinity to ATAD2 bromodomain (unknown origin) assessed as change in melting temperature at 10 uM by differential scanning fluorimetric analysis
T2 sequence (whole entry): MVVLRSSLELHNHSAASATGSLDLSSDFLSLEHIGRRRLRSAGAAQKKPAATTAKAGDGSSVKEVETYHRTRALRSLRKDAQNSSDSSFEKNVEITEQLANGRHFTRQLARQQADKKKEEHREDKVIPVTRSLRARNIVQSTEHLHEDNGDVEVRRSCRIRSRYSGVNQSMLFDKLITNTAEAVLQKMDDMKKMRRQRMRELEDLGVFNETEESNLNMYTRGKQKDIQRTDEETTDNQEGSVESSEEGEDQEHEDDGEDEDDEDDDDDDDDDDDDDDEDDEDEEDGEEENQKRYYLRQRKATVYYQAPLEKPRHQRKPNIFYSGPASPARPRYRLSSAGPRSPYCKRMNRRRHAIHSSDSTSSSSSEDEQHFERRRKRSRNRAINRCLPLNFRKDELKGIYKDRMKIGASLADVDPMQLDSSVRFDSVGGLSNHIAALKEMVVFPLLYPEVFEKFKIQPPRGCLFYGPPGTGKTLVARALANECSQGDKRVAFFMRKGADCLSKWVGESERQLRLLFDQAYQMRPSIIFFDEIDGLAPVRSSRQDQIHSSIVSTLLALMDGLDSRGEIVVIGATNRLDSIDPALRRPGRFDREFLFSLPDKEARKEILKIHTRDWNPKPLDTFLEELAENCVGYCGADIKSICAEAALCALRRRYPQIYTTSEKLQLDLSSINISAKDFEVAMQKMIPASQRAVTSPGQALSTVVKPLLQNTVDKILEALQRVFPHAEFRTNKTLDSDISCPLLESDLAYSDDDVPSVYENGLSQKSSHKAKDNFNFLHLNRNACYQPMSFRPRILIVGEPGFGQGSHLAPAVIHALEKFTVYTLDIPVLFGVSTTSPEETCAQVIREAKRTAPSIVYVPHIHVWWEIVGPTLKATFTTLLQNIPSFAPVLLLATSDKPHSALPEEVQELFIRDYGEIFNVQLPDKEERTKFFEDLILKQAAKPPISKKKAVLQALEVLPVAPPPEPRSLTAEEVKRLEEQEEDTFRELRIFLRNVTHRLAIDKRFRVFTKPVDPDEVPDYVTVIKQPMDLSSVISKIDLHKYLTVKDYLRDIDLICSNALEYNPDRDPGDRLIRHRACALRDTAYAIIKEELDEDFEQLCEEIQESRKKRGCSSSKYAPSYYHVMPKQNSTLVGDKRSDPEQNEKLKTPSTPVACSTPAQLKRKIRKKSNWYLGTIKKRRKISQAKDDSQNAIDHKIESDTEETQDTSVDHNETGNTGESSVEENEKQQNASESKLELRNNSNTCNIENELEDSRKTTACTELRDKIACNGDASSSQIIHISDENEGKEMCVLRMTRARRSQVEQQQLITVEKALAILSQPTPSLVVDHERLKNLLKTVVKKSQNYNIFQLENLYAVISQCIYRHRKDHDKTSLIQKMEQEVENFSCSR

[10] = biological target: T3, Transcription intermediary factor 1-alpha (Homo sapiens) (UniProt O15164); assay: Binding affinity to TIF1alpha bromodomain (unknown origin) assessed as change in melting temperature at 10 uM by differential scanning fluorimetric analysis
T3 sequence (whole entry): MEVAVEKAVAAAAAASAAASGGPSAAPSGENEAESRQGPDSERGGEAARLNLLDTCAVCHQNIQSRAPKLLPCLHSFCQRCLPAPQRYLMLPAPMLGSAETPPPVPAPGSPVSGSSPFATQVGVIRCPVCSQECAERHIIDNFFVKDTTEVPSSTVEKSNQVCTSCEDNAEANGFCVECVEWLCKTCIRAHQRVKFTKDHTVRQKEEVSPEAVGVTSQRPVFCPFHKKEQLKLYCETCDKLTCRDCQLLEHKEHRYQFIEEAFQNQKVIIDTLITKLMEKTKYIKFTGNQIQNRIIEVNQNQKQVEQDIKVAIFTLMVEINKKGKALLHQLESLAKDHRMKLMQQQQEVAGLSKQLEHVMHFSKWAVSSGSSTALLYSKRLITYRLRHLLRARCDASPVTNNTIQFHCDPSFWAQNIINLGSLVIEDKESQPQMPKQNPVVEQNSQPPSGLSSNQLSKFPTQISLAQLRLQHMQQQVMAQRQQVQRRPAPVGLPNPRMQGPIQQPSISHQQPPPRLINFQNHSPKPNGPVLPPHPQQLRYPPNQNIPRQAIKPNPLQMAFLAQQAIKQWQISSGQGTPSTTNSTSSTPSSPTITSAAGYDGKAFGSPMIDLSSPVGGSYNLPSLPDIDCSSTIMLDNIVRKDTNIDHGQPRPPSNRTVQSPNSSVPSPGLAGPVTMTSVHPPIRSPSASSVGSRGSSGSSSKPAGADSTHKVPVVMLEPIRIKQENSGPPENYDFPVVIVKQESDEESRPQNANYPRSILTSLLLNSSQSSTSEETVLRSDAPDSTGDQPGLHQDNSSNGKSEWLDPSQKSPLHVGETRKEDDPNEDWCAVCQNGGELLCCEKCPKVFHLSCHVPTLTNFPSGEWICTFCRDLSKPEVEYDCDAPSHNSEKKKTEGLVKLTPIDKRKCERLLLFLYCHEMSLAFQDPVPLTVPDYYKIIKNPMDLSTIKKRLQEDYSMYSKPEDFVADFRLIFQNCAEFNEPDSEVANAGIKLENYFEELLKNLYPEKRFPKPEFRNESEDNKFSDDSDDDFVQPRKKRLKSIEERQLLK

Homo sapiens [11] = organism: Homo sapiens; assay: Selectivity ratio of IC50 for BRD4 bromodomain-1 (unknown origin) to IC50 for CBP (unknown origin)
[12] = biological target: T4, Bromodomain-containing protein 9 (Homo sapiens) (UniProt Q9H8M2); assay: Binding affinity to BRD9 bromodomain (unknown origin) assessed as change in melting temperature at 10 uM by differential scanning fluorimetric analysis
T4 sequence (whole entry): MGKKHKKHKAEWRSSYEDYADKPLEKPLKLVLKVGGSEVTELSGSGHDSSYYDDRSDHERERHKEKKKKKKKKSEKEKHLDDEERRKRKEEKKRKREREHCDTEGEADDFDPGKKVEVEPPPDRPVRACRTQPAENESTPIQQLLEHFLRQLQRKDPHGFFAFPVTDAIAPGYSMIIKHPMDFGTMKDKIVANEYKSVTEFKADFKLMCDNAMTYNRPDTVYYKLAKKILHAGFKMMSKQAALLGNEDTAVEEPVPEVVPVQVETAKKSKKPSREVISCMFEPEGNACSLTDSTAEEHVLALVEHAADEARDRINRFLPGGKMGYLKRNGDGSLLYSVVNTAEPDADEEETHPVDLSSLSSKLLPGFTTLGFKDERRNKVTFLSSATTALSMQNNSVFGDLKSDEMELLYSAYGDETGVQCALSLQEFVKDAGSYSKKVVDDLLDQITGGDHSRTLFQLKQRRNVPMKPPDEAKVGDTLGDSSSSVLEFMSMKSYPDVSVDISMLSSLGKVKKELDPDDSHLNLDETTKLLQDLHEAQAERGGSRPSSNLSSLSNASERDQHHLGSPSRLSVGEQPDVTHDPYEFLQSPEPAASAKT

Sequence of Protein polybromo-1 (Homo sapiens) (Q86U86 whole entry): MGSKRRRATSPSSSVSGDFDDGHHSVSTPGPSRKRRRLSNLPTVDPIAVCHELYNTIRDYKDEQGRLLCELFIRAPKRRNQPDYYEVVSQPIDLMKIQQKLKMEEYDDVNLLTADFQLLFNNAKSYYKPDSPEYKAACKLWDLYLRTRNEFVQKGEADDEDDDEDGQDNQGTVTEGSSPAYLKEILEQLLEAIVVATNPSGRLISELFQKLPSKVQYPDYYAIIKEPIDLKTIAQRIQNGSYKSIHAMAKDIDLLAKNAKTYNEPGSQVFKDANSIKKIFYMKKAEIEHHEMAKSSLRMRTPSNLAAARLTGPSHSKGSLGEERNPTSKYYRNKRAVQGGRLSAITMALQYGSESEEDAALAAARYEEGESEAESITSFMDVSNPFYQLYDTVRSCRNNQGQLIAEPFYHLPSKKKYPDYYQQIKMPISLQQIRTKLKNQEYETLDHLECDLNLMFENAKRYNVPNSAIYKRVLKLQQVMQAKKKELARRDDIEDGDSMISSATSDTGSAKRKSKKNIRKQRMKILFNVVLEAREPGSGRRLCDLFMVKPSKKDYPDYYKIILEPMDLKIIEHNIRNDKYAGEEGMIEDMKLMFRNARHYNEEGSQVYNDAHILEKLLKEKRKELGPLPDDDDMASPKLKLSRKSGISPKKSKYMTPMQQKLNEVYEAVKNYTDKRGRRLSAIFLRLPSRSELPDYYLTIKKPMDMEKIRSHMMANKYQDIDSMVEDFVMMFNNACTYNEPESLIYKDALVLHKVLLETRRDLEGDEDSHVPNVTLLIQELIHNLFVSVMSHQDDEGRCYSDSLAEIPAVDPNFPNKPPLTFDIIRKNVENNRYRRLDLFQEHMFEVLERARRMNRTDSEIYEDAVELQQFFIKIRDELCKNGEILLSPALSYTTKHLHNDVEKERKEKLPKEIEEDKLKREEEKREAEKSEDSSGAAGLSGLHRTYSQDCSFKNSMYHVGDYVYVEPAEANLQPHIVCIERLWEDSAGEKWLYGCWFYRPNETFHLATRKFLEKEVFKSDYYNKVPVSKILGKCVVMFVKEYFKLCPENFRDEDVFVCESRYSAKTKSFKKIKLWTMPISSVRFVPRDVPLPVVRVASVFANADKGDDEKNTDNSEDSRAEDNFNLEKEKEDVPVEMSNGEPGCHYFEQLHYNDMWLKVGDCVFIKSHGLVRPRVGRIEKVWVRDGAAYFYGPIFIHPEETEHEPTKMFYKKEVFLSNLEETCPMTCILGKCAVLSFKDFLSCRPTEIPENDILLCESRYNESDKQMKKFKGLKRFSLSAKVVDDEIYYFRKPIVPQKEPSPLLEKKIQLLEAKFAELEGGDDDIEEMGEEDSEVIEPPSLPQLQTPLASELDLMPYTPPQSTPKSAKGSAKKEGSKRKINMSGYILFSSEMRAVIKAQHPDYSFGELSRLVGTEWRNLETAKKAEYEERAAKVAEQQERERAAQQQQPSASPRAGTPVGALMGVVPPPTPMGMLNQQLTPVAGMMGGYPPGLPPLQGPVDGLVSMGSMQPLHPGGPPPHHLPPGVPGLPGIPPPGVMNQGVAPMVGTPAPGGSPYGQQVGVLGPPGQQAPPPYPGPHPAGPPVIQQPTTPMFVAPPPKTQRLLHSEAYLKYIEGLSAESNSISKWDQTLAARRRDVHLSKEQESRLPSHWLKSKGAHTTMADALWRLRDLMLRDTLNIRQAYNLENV

Compound	pIC50 [3]	IC50 ([5]; read-out: pIC50 (converted)) [nM]	further results
Cc1noc(C)c1-c1ccc2ncn(Cc3ccc(C#N)cc3)c2c1	< 4	200	ΔTm [1]: -0.1 °C; ΔTm (Homo sapiens [2]): 1.1 °C; ΔTm [4]: 3.2 °C; IC50 ([5]; read-out: IC50): 180 nM; ΔTm [6]: -0.4 °C; ΔTm [7]: 0 °C; ΔTm [8]: -0.2 °C; ΔTm [9]: -0.1 °C; ΔTm [10]: -0.2 °C; Ratio IC50 (Homo sapiens [11]): 100; ΔTm [12]: 0.1 °C
Cc1noc(C)c1-c1ccc2ncn(Cc3cccc(C(=O)N(C)C)c3)c2c1	5.2	631	–
Cc1noc(C)c1-c1ccc2nc[nH]c2c1	5.4	6310	–
Cc1noc(C)c1-c1ccc2c(c1)C(=O)CC2	< 4.6	63100	–
Cc1noc(C)c1-c1ccc2ncn(Cc3ccccc3[N+](=O)[O-])c2c1	< 4	631	–
Cc1noc(C)c1-c1ccc2c(c1)ncn2Cc1ccccc1[N+](=O)[O-]	4.8	12600	–
Cc1noc(C)c1-c1ccc2c(c1)C(OCCCN1CCNCC1)CC2 (racemic)	–	3980	–
Cc1noc(C)c1-c1ccc2c(c1)C(O)(c1ccccc1)CC2 (racemic)	4.7	1260	–
Cc1noc(C)c1-c1ccc2ncn(Cc3ccc(Cl)c(Cl)c3)c2c1	< 4	3980	–
Cc1noc(C)c1-c1ccc2c(c1)ncn2Cc1ccc(Cl)cc1	5.7	2510	–
Cc1noc(C)c1-c1ccc2ncn(Cc3ccccc3C#N)c2c1	5.9	1000	–
Cc1noc(C)c1-c1ccc2ncn(Cc3ccc(C(=O)N(C)C)cc3)c2c1	5.2	2000	–
Cc1noc(C)c1-c1ccc2ncn(Cc3cccc(Br)c3)c2c1	< 5	1000	–
Cc1noc(C)c1-c1ccc2c(c1)C(OCc1ccccc1)CC2 (racemic)	–	31600	–
Cc1noc(C)c1-c1ccc2c(c1)C(OCCCN1CCOCC1)CC2 (racemic)	–	6310	–
Cc1noc(C)c1-c1ccc2c(c1)C(OCCCN1CCCCC1)CC2 (racemic)	–	6310	–
COc1ccc(Cn2cnc3ccc(-c4c(C)noc4C)cc32)cc1	< 5	794	–
Cc1noc(C)c1-c1ccc2c(c1)ncn2Cc1cccc(Br)c1	5.6	1580	–
Cc1noc(C)c1-c1ccc2ncn(Cc3ccccc3Cl)c2c1	< 5	794	–
Cc1noc(C)c1-c1ccc2cc[nH]c2c1	< 5	20000	–
COC(=O)c1ccc(Cn2cnc3ccc(-c4c(C)noc4C)cc32)cc1	< 4	1260	–
Cc1noc(C)c1-c1ccc2ncn(Cc3cccc(Cl)c3)c2c1	4.7	1260	–
Cc1noc(C)c1-c1ccc2ncn(Cc3cccc(F)c3)c2c1	4.9	631	–
Cc1noc(C)c1-c1ccc2c(c1)ncn2Cc1ccc(Cl)c(Cl)c1	5.9	10000	–
Cc1noc(C)c1-c1ccc2c(c1)C(OCc1ccc3ccccc3n1)CC2 (racemic)	–	20000	–
Cc1noc(C)c1-c1ccc2c(c1)C(OCCCN1CCCC1)CC2 (racemic)	–	6310	–
Cc1noc(C)c1-c1ccc2c(c1)nc(C)n2Cc1ccc(O)cc1	5.1	2000	–
COc1ccc(Cn2c(C)nc3ccc(-c4c(C)noc4C)cc32)cc1	4.6	1580	–
